Values quoted from earlier work as cited in patent US20090098211A1, “SOLID DOSAGE FORMS” (priority 2007, published 2009).

Compound: CN1CC(=O)N2[C@H](c3ccc4c(c3)OCO4)c3[nH]c4ccccc4c3C[C@@H]2C1=O [Tadalafil, (6R-trans)-6-(1,3-benzodioxol-5-yl)-2,3,6,7,12,12a-hexahydro-2-methyl-pyrazino[1′,2′:1,6]pyrido[3,4-b]indole-1,4-dione]
- solubility in water (in words) (water): practically insoluble in water
- water solubility (water at 25° C.): about 2 μg per mL
